Tested on: patients with MDD and an inadequate response to an SSRI or SNRI
Assay: Massachusetts General Hospital Sexual Functioning Index (MGH-SFI), Study ACP-103-042
Assay type: in vivo, human
Description: “Massachusetts General Hospital Sexual Functioning Index (MGH-SFI)” is described, for instance, in Labbate and Lare, 2001, Psychother Psychosom. 70(4):221-225. This is a patient facing questionnaire that quantifies sexual dysfunction into 5 functional domains (“interest in sex,” “sexual arousal,” “ability to achieve orgasm,” “ability to maintain erection” (males only), and “sexual satisfaction”). Patients rate each item using a 6-point scale ranging from 1 (good function) to 6 (poor function). High scores indicate poor sexual functioning. […] The determination of the subject's status and eligibility for randomization in Stage 2 was made in a double-blind manner. […] Sexual functioning was assessed using the Massachusetts General Hospital Sexual Functioning Index or MGH-SFI (Labbate and Lare, 2001, Psychother Psychosom. 70(4):221-225). This is a patient facing questionnaire that quantifies sexual dysfunction into 5 functional domains (“interest in sex,” “sexual arousal,” “ability to achieve orgasm,” “ability to maintain erection” [malesonly], and “sexual satisfaction”). Patients rate each item using a 6-point scale ranging from 1 (good function) to 6 (poor function). The time frame for this scale is the past month. This scale was administered at baseline and Week 5 in both stages of the study. High scores indicate poor sexual functioning. In ACP-103-042 the mean scores for MGH-SFI at Baseline was calculated over all 5 domains for males and the 4 domains for females. For MGH-SFI (follow-up version) at Study Weeks 5 and 10, the mean was calculated in the same way as MGH-SFI at Baseline. […] Tables 10-27 summarize the detailed data of MGH-SFI individual items of the overall study group (Tables 10-15), the subgroup of age of <=50 (Tables 16-21) and the subgroup of age of >50 (Table 21-26). In Tables 9-26, ANCOVA=analysis of covariance; OC=observed cases; LSM=least squares mean; CI=confidence interval; SD=standard deviation; SE=standard error. Stage 1: Baseline=Study Week 0, Week 5=Study Week 5; Stage 2: Baseline=Study Week 5, Week 5=Study Weeks 10. LSM from the stage-specific ANCOVA analysis with the change from baseline as the outcome, treatment group as a factor, and the corresponding Baseline value as a covariate. 2-sided p-value for treatment difference from the stage-specific ANCOVA analysis. An treatment effect size (Cohen's d) is calculated using the formula: Effect Size=Least Square mean difference between PIM and PBO/SD. The corresponding 95% confidence interval for an effect size is calculated based on the theoretical probability distribution of the effect size. […] Tables 10-15 and 28-38 summarize the detailed data of MGH-SFI individual items of the overall study group (Tables 10-15), the female subgroup (Tables 33-37) and the male subgroup (Table 38-43). An treatment effect size (Cohen's d) is calculated using the formula: Effect Size=Least Square mean difference between PIM and PBO/SD. The corresponding 95% confidence interval for an effect size is calculated based on the theoretical probability distribution of the effect size. In Tables 10-15 and 28-38, ANCOVA=analysis of covariance; OC=observed cases; LSM=least squares mean; CI=confidence interval; SD=standard deviation; SE=standard error. Stage 1: Baseline=Study Week 0, Week 5=Study Week 5; Stage 2: Baseline=Study Week 5, Week 5=Study Weeks 10. LSM from the stage-specific ANCOVA analysis with the change from baseline as the outcome, treatment group as a factor, and the corresponding Baseline value as a covariate. 2-sided p-value for treatment difference from the stage-specific ANCOVA analysis. An treatment effect size (Cohen's d) is calculated using the formula: Effect Size=Least Square mean difference between PIM and PBO/SD. The corresponding 95% confidence interval for an effect size is calculated based on the theoretical probability distribution of the effect size.

[1] = male subgroup, Stage 2, PIM 34 mg
[2] = male subgroup, Stage 2, PIM 34 mg vs placebo, change from baseline to Week 5
[3] = male subgroup, Stage 2, PIM 34 mg, Week 5
[4] = subgroup <=50 years old, Stage 1, PIM 34 mg

CC(C)COc1ccc(CNC(=O)N(Cc2ccc(F)cc2)C2CCN(C)CC2)cc1 [pimavanserin, N-(4-Fluorophenylmethyl)-N-(1-methylpiperidin-4-yl)-N′-(4-(2-methylpropyloxy)phenylmethyl)carbamide]
MGH-SFI Item 02: Ability to Get Sexually Aroused or Excited, Change from Baseline to Week 5, Median [1]: −1.0
MGH-SFI Item 03: Ability to Achieve Orgasm, Change from Baseline to Week 5, Mean (SE) [1]: −0.8 (0.36)
MGH-SFI Item 03: Ability to Achieve Orgasm, Change from Baseline to Week 5, Median [1]: 0.0
MGH-SFI Item 04: (Men) Ability to Get and Maintain an Erection, Change from Baseline to Week 5, Mean (SE) [1]: −1.0 (0.41)
MGH-SFI Item 04: (Men) Ability to Get and Maintain an Erection, Change from Baseline to Week 5, Median [1]: −1.0
MGH-SFI Item 05: Overall Sexual Satisfaction, Change from Baseline to Week 5, Mean (SE) [1]: −1.4 (0.50)
MGH-SFI Item 05: Overall Sexual Satisfaction, Change from Baseline to Week 5, Median [1]: −1.0
MGH-SFI Item 06: Overall Improvement Since Last Medication Change, Effect Size (Cohen's d) (male subgroup, Stage 2, PIM 34 mg vs placebo, Week 5): 0.405
MGH-SFI Item 02: Ability to Get Sexually Aroused or Excited, Effect Size (Cohen's d) [2]: −0.154
MGH-SFI Item 03: Ability to Achieve Orgasm, Effect Size (Cohen's d) [2]: 0.497
MGH-SFI Item 04: (Men) Ability to Get and Maintain an Erection, Effect Size (Cohen's d) [2]: 0.701
MGH-SFI Item 05: Overall Sexual Satisfaction, Effect Size (Cohen's d) [2]: 0.511
MGH-SFI Item 02: Ability to Get Sexually Aroused or Excited, Week 5, Mean (SE) [3]: 3.6 (0.47)
MGH-SFI Item 02: Ability to Get Sexually Aroused or Excited, Week 5, Median [3]: 4.0
MGH-SFI Item 03: Ability to Achieve Orgasm, Week 5, Mean (SE) [3]: 3.6 (0.56)
MGH-SFI Item 03: Ability to Achieve Orgasm, Week 5, Median [3]: 4.0
MGH-SFI Item 04: (Men) Ability to Get and Maintain an Erection, Week 5, Mean (SE) [3]: 3.1 (0.54)
MGH-SFI Item 04: (Men) Ability to Get and Maintain an Erection, Week 5, Median [3]: 4.0
MGH-SFI Item 05: Overall Sexual Satisfaction, Week 5, Mean (SE) [3]: 3.0 (0.53)
MGH-SFI Item 05: Overall Sexual Satisfaction, Week 5, Median [3]: 3.0
MGH-SFI Item 06: Overall Improvement Since Last Medication Change, Week 5, Mean (SE) [3]: 3.7 (0.53)
MGH-SFI Item 06: Overall Improvement Since Last Medication Change, Week 5, Median [3]: 4.0
MGH-SFI 01: Interest in Sex, Effect Size (Cohen's d) (male subgroup, Stage 2, positive = pimavanserin better than placebo): 0.174
MGH-SFI Items 1, 2, 3, and 5 mean change from baseline to Week 5 vs placebo (overall study group): significantly greater
MGH-SFI 04: (Men) Ability to Get and Maintain an Erection, Change from Baseline to Week 5 Mean (SE) [4]: −1.7 (1.45)
MGH-SFI 04: (Men) Ability to Get and Maintain an Erection, Change from Baseline to Week 5 Median [4]: −2.0
MGH-SFI 04: (Men) Ability to Get and Maintain an Erection, Week 5 Mean (SE) [4]: 2.3 (0.67)
MGH-SFI 04: (Men) Ability to Get and Maintain an Erection, Week 5 Median [4]: 3.0
MGH-SFI 05: Overall Sexual Satisfaction, Change from Baseline to Week 5 Mean (SE) [4]: −0.5 (0.35)
MGH-SFI 05: Overall Sexual Satisfaction, Change from Baseline to Week 5 Median [4]: 0.0
MGH-SFI 05: Overall Sexual Satisfaction, Week 5 Mean (SE) [4]: 3.6 (0.43)
MGH-SFI 05: Overall Sexual Satisfaction, Week 5 Median [4]: 4.0
MGH-SFI 06: Overall Improvement Since Last Medication Change, Week 5 Mean (SE) [4]: 3.0 (0.24)
MGH-SFI 06: Overall Improvement Since Last Medication Change, Week 5 Median [4]: 3.0
MGH-SFI 04: (Men) Ability to Get and Maintain an Erection, Effect Size (Cohen's d) (subgroup <=50 years old, Stage 1, PIM 34 mg vs placebo): 0.877
